We go through one molecule from paper PMC13252604, “First Generation Proteolysis Targeting Chimeras (PROTACs) for the Treatment of Progeria” (Advanced Science, 2026).

Some results are limits rather than exact numbers.

The test system of series [1] is Lmna^G609G/G609G mouse fibroblasts. The experiment in a line: Cellular uptake by fluorescence microscopy. Format: cell-based. Conditions: intrinsic fluorescence, 5 μM. The method, then: Supporting Figure S4. Cellular internalization of compounds 2 and 9. Live progeroid
LmnaG609G/G609G mouse fibroblasts were incubated with 5 μM of indicated compound and
images were taken every 5 minutes in a confocal fluorescence microscopy Olympus lx83
(lexc = 420 nm; lem = 530 nm). Shown image corresponds to 100 min incubation. Scale […]

A further series can be described thus: Stability in human serum. In kind it is in vitro ADME. The text has this: TABLE 1 Pharmacokinetic parameters of PROTAC 2. | column: Stability (hours) ^b / h‐serum
The subject of series [2] is HGADFN167 Lmna^G608G/G608G fibroblasts. The experiment in a line: RT-qPCR of senescence markers in human progeroid cells. In kind it is cell-based. Conditions: HGADFN167, 5 µM, 20 days. The text has this:
FIGURE 6 (A) Representative cropped immunoblots and progerin quantification in human Lmna^G608G/G608G fibroblasts. MW, molecular weight (in kDa) markers. […] (B) PROTAC 2 increases cell proliferation (upper panels) and decreases the number of misshapen nuclei (lower panels). White arrows highlight selected misshapen nuclei. (C) PROTAC 2 decreases senescence‐associated β‐galactosidase (SA‐βgal) activity, interleukin (IL) 6, p16 and p21 senescent markers. Bar graphs show mean±sem of 2 (SA‐βgal and p21) or 3 (IL‐6 and p16) independent experiments performed in triplicate. (D) PROTAC 2 decreases phosphorylated histone 2AX (pH2AX) and increases trimethylated histone 3 (H3K9Me3) levels. (E) PROTAC 2 increases the oxygen consumption rate (OCR), ATP production and the number of healthy mitochondria in human progeroid cells. Bar graphs show mean±sem of 2 independent experiments performed in duplicate. […] Data were analysed using one‐way ANOVA followed by Dunnett's post–hoc test vs vehicle (panel A) or vs G608G cells (panels B‐E). ^*, p < 0.05; ^**, p < 0.01; ^***, p < 0.001; ^****, p < 0.0001. […]
ferrocyanide, 0.6 mL 5 M NaCl, 0.2 mL 0.2 M MgCl2, (all from Sigma Aldrich) and 6.2 mL of deionized water in a total volume of 20 mL] in the dark in a humidified incubator at 37 °C for 24 h without CO2 supply. Then, an equal volume of the supernatant of each well was transferred to a new 96-well plate for fluorescence measurement. The resultant production of fluorescein was measured using a FluoStar Optima instrument (BMG Labtech) with an excitation of 485 nm and emission at 535 nm. […]
Total RNA was extracted by RNAeasy Mini Kit (Qiagen) according to the manufacturer instructions and subsequently quantified using the NanoPhotometer N60 (Implen). […] Quantitative real-time PCR was run in the QuantStudio 7FLEX (Applied Biosystems) system and results were normalized according to β-actin quantification.
Specific `in-house´ designed primers (see sequence below) were purchased from Metabion. The threshold cycle (Ct) was determined, and the relative gene expression was […]
For orientation: Real-time PCR tracks product formation cycle by cycle.

On to `CC1(C)Oc2cc3oc(=O)ccc3cc2C[C@@H]1OC(=O)CCCCCNc1cccc2c1C(=O)N(C1CCC(=O)NC1=O)C2=O` (some centres unmarked) [compound 2], for which, in series [1], the cellular uptake entry is recorded as “confirmed”. In addition, in the series “Stability in human serum”, the “Stability (hours) h‐serum” value is more than 24 h. Moreover, in series [2], the “IL‐6 senescent marker” value is recorded as “significantly reduced”, the p16 senescent marker result is “significantly reduced” and the p21 senescent marker entry is reported as “significantly reduced”.
